Reference: patent publication US9784753B2, “Biological system to test in vitro if a substance is immune reactive” (priority 1996, dated 2017)

Legend:
[1] = test system: frozen whole blood stimulated with LPS; experiment: Modulation of LPS-stimulated IL-1 release in frozen whole blood; type: cell-based, human; conditions: depending on amount of substance administered; FIGS. 2 and 3
Experimental: Citrated blood from healthy donors was mixed with 10% dimethylsulfoxide (Merck, Darmstadt) immediately after it was drawn. Aliquots of 100 microliters were distributed in 2 milliliter reaction vessels (Eppendorf, Hamburg) and transferred to a −70° C. cold box in a commercial freezing system (a person, Nalgene). Thawing was done in a thermoshaker (Eppendorf, Hamburg) at 37° C. Immediately after thawing, 900 microliters of RPMI 1640 (Gibco, Eggenstein), warmed to 37° C., was added. Then the test substances, such as dilutions of a pyrogen, in this case, lipopolysaccharide of Salmonella abortus equi (Sigma, Deisenhofen) were added. After a four-hour incubation at 37° C., for example, in an incubator (Heraeus, Fellbach) with 5% carbon dioxide the incubated samples are shaken and centrifuged. Endogenous pyrogens, IL-1β in this case, are determined in the cell-free supernatant, after freezing, if desired. […] IL-1β was determined by ELISA (enzyme-linked immunosorbent assay) from antibodies from the company Pharmingen (Hamburg).

[2] = test system: cryopreserved blood from four healthy donors; experiment: IL-1β release in thawed cryopreserved whole blood on contact with pyrogen (ELISA); type: cell-based, human; conditions: thawed deep-frozen citrated blood with 10% dimethylsulfoxide, diluted with RPMI 1640, four-hour incubation at 37° C., FIG. 1
Experimental: Citrated blood from healthy donors was mixed with 10% dimethylsulfoxide (Merck, Darmstadt) immediately after it was drawn. Aliquots of 100 microliters were distributed in 2 milliliter reaction vessels (Eppendorf, Hamburg) and transferred to a −70° C. cold box in a commercial freezing system (Mr. Freezy, Nalgene). Thawing was done in a thermoshaker (Eppendorf, Hamburg) at 37° C. Immediately after thawing, 900 microliters of RPMI 1640 (Gibco, Eggenstein), warmed to 37° C., was added. Then the test substances, such as dilutions of a pyrogen, in this case, lipopolysaccharide of Salmonella abortus equi (Sigma, Deisenhofen) were added. After a four-hour incubation at 37° C., for example, in an incubator (Heraeus, Fellbach) with 5% carbon dioxide the incubated samples are shaken and centrifuged. Endogenous pyrogens, IL-1β in this case, are determined in the cell-free supernatant, after freezing, if desired. […] IL-1β was determined by ELISA (enzyme-linked immunosorbent assay) from antibodies from the company Pharmingen (Hamburg).

Row | Compound | release of IL-1 in frozen whole blood stimulated with LPS [1] | release of endogenous pyrogens (IL-1β) [2]
1 | Cn1cnc([N+](=O)[O-])c1Sc1ncnc2[nH]cnc12 [azathioprin] | dependence of release of IL-1 | 
2 | lipopolysaccharide of Salmonella abortus equi |  | release of endogenous pyrogens in the presence of minimal amounts of pyrogens
